Reference: article PMC3693115 (Evidence-based Complementary and Alternative Medicine : eCAM, 2013)

Key:
[1] = DPPH microplate assay (radical scavenging activity); conditions: for Antioxidant IC50 (radical scavenging activity) / Antioxidant % inhibition (at 100 µg/mL): mean ± SEM (n = 3)
Protocol: The antioxidant capacity was estimated in terms of radical scavenging activity according to a modified version of Brand-Williams method. Briefly, 100 μL of tested compounds at least 5 concentrations (dissolved in MeOH) was thoroughly mixed with 100 μL of freshly prepared DPPH solution (3 × 10^−5 M dissolved in MeOH). The reaction mixture was incubated for 30 min, then, the absorbance was read at 517 nm. Each assay was done in triplicate. IC50 value was determined by a linear regression analysis between the inhibition percentages against the concentration of tested compounds by using the Excel program.

[2] = system: P19-derived neurons; assay: Neuritogenic assay (neurite number and length); assay type: cell-based, Murine; conditions: 1 nM, 24 h, 30 neurons measured
Protocol: Murine P19 embryonic carcinoma cells were purchased from American Type Culture Collection (ATCC), USA. P19 cells were cultured as described by Mcburney in a slightly modification. In brief, the undifferentiated P19 cells were cultured as monolayers in α-MEM with 7.5% NCS, 2.5% FBS, and 1% antibiotics-antimycotic solution in a 25-cm^2 tissue culture flask, incubated at 37°C in a humidified atmosphere of 5% CO2. Cells in monolayer cultures were maintained in exponential growth phase by subculturing every 2 days until use.
The exponentially grown cultures indicated the cells density by trypan blue exclusion assay. Then, neuronal differentiation was induced by seeding 2 × 10^6 cells/mL cell in a 100 mm bacteriological grade culture dish containing 10 mL α-MEM supplemented with 5% FBS, 1% antibiotics-antimycotic solution, and 0.5 μM RA. […]
The assay was carried out with P19-derived neurons cultured in a poly-L-lysine-precoated 6-well plate. […] Average length and number of neurites of 30 neurons from the assay were measured. […] The data were expressed as the mean ± SEM from three independent experiments.

[3] = molecular target: T1, AChE (purified enzyme from eel (Electrophorus electricus) type VI-s) (Electrophorus electricus, UniProt O42275); assay: biochemical; conditions: mean ± SEM (n = 3); for inhibition at 100 µg/mL: read-out: Anticholinesterase (using purified enzyme from E. electricus) % inhibition (at 100 µg/mL)
T1 construct: a purified enzyme from eel (Electrophorus electricus) type VI-s; purchased Sigma (St. Louis, MO, USA); host or cells: purified from electric eel (natural source)
Protocol: Ellman's colorimetric method and modified method using 96-well microplates were used. Briefly, […], the product of hydrolysis reaction of ACh by cholinesterase, will react with DTNB to give 2-nitro-5-thiobenzoate (NTB^−), which ionizes to the NTB^2- dianion (in water at pH 8). This NTB^2- ion appears as yellow, which is quantified by measuring the absorbance of visible light at 405 nm. Briefly, tested compound was prepared in buffer a containing 50% MeOH. In a 96-well microtiter plate, 25 μL of tested sample was added to 200 μL reaction medium that consisted of 50 μL of buffer (50 mM TrisHCl pH 8.0) containing 0.1% BSA, 125 μL of 3 mM DTNB in buffer containing 0.1 M NaCl, and 0.02 M MgCl2·2H2O and 25 μL of 15 mM ATCI in deionized water. These contents were mixed and preincubated for 5 min at 37°C. The plate was pre-read at 405 nm using a microplate reader (TECAN M200, Switzerland). Thereafter, the reaction was initiated by the addition of 25 μL of AChE (0.22 U/mL). After 20 min incubation at 37°C, absorbance was measured again within 4–7 min. The reaction control consisted of reaction medium (200 μL), 25 μL of enzyme, and 25 μL of 50% MeOH in buffer. Two blanks were also carried out (with and without sample), and MeOH was used as the solvent control. […] Each assay was done in triplicate.

[4] = molecular target: cellular AChE of SK-N-SH cells (Homo sapiens, UniProt P22303); assay: cell-based; design: host or cells: SK-N-SH human neuroblastoma cells; conditions: for IC50: mean ± SEM (n = 3), read-out: Anticholinesterase (using neuroblastoma cell) IC50 (converted); for inhibition at 100 µg/mL: read-out: Anticholinesterase (using neuroblastoma cell) % inhibition (at 100 µg/mL), 100 µg/mL, mean ± SEM (n = 3)
Protocol: The human neuroblastoma cell line SK-N-SH was purchased from the American Type Culture Collection (Manassas, VA, USA). The SK-N-SH cells were cultured in minimum essential medium from Gibco (California, USA), supplemented with 10% heat inactivated FBS, 2% supplementary amino acid solution, and 1% Glutamax (Gibco, California, USA), 1% penicillin/streptomycin. Incubation was carried out at 37°C in a humidified atmosphere of 5% CO2-95% […] atmosphere. Cells were seeded into 96-well microplates (Nunc, Roskilde, Denmark) at a density of 1 × 10^5 cells/mL (100 μL in each well). Experiments were carried out after 24 h of seeding.
One of the important neuronal properties of SK-N-SH cells is the synthesis of neurotransmitter enzymes. The inhibition activity of samples on this cell line was investigated by the modified Ellman's colorimetric method. The condition was slightly modified to enable the cellular enzyme to work properly. Briefly, 25 μL of sample dissolved in buffer containing 50% methanol, 100 μL of 3 mM DTNB in buffer containing 0.1 M NaCl and 0.02 M MgCl2·2H2O, and 25 μL of 15 mM ATCI in deionized water were added to the well containing 100 μL of the cells. The absorbance at 405 nm was measured by a microplate reader (TECAN M200, Switzerland). All assays were done in triplicate.

[5] = in vitro; assay type: cell-based; conditions: mouse
Protocol: The exponentially grown cultures indicated the cells density by trypan blue exclusion assay. Then, neuronal differentiation was induced by seeding 2 × 10^6 cells/mL cell in a 100 mm bacteriological grade culture dish containing 10 mL α-MEM supplemented with 5% FBS, 1% antibiotics-antimycotic solution, and 0.5 μM RA. […] After 4 days of RA treatment, aggregates were dissociated with trypsin, washed, resuspended on poly-L-lysine-precoated 96-well plates (plates were previously coated with 50 μg/mL poly-L-lysine dissolved in PBS for overnight and sterilized under UV light for 30 min) at a cell density of 7 × 10^4 cells/mL (150 μL/well) in α-MEM supplemented with 10% FBS and 1% antibiotics-antimycotic solution, and incubated for 24 h. Ara-C (10 μM) was added at day one after plating to inhibit the proliferation of nonneuronal cells. […]
The procedure was carried out on P19-derived neurons cultured in a 96-well plate [29]. […] The data were expressed as the mean ± SEM (n = 3), with the medium as a control representing 100% cell viability.

[6] = system: P19-derived neurons; assay: Neuroprotective activity against oxidative stress induced by serum deprivation (XTT); assay type: cell-based, Murine; conditions: 1 nM, 24 h
Protocol: Murine P19 embryonic carcinoma cells were purchased from American Type Culture Collection (ATCC), USA. P19 cells were cultured as described by Mcburney [24, 25] in a slightly modification [26, 27]. In brief, the undifferentiated P19 cells were cultured as monolayers in α-MEM with 7.5% NCS, 2.5% FBS, and 1% antibiotics-antimycotic solution in a 25-cm^2 tissue culture flask, incubated at 37°C in a humidified atmosphere of 5% CO2. Cells in monolayer cultures were maintained in exponential growth phase by subculturing every 2 days until use.
The blank control was cultured in α-MEM supplemented with 10% FBS and 10 μM Ara-C. The cell survival ability was measured using the XTT method.

T1 sequence (O42275 24-633): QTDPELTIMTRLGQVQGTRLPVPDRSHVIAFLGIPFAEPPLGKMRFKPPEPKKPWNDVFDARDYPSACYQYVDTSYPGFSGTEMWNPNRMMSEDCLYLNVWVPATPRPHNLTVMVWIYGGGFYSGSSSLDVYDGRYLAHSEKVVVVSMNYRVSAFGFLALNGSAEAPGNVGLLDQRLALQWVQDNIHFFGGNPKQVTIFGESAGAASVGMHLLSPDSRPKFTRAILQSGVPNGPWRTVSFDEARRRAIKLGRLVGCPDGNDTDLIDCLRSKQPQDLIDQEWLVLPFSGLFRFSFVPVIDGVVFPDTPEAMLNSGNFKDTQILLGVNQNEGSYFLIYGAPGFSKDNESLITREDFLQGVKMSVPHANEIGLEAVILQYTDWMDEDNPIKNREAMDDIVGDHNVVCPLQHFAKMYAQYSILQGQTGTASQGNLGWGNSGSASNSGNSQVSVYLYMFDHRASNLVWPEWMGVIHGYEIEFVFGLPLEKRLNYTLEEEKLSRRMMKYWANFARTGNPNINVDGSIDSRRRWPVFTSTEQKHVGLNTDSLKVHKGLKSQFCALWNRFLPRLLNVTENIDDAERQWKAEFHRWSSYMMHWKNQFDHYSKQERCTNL
cellular AChE of SK-N-SH cells, sequence (P22303 32-614): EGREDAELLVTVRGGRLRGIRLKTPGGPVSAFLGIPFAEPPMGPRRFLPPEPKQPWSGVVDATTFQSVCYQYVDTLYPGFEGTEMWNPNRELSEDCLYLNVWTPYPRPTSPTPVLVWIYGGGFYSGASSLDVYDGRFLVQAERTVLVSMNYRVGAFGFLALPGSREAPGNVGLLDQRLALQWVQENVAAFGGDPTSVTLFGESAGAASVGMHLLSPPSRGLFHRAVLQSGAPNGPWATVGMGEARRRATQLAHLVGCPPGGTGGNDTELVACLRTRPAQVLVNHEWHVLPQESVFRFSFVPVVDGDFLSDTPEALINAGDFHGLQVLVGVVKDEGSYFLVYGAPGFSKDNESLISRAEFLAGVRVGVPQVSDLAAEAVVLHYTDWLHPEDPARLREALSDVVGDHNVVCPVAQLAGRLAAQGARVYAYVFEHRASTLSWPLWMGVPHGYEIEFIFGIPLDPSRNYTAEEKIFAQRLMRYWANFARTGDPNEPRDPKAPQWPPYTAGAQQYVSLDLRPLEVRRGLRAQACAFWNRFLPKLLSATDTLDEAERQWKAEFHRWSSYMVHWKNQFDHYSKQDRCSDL

Row | Structure (SMILES) | Antioxidant IC50 (radical scavenging activity) [1] [µg/mL] | Antioxidant % inhibition (at 100 µg/mL) [1] [%] | inhibition at 100 µg/mL [3] [%] | IC50 [4] [µM] | inhibition at 100 µg/mL [4] [%] | further results
1 | O=C1O[C@H]([C@@H](O)CO)C(O)=C1O [Ascorbic acid, reference compound] | 10.52 ± 0.48 | – | – | – | – | –
2 | Cc1c(C)c2c(c(C)c1O)CCC(C)(C(=O)O)O2 (centres unmarked) [Trolox, reference compound] | 12.54 ± 0.89 | – | – | – | – | –
3 | COC1=C2C[C@@H](C)C[C@H](OC)[C@H](O)[C@@H](C)/C=C(\C)[C@H](OC(N)=O)[C@@H](OC)/C=C\C=C(/C)C(=O)NC(=CC1=O)C2=O [geldanamycin, Geldanamycin, reference compound] | – | – | – | – | – | Amount of neurites [2]: 2.03 ± 1.30
4 | O=C(O)c1cc(O)c(O)c(O)c1 [Gallic acid] | 4.83 ± 0.02 | 94.76 ± 0.51 | 73.64 ± 0.06 | 16.4 | 90.7 ± 2.66 | IC50 ([3]; read-out: Anticholinesterase (using purified enzyme from E. electricus) IC50 (converted)): 74.8 µM
5 | O=c1c(O)c(-c2ccc(O)c(O)c2)oc2cc(O)cc(O)c12 [Quercetin, 3,3′,4′,5,7-pentahydroxyflavone] | 3.18 ± 0.07 | 92.61 ± 0.99 | 80.9 ± 2.52 | 121 | 82 ± 3.34 | IC50 ([1]; converted to molar, read-out: Antioxidant activity IC50 in micromolar range): 9.4 µM; IC50 at 18 h [5]: > 10 µM; viability at 24 h, 0.001 µM ([5]; 1 nM, 24 h treatment, relative to control (100%), read-out: % cell viability of cultured neurons): > 100%; Neurite length [2]: 139.00 ± 108.80 μm; Cell survival in serum-supplemented culture ([6]; compared to the control (P19SM)): 128.01%; Cell survival in serum-deprived culture ([6]; serum-free α-MEM, serum deprivation alone 31.16%): 88.29%
